In US10300044B2, “Polymorphic forms of methyl((1S)-1-(((2S)-2-(5-(4′-(2-((2S)-1-((2S)-2-((methoxycarbonyl)amino)-3-methylbutanoyl)-2-pyrrolidinyl)-1H-imidazol-5-yl)-4-biphenylyl)-1H-imidazol-2-yl)-1-pyrrolidinyl)carbonyl)-2-methylpropyl)carbamate and salts thereof” (Cipla Limited, priority 2014, dated 2019):
Counter-ions that a name gives are not always drawn.

Key:
Hygroscopicity = type: physicochemical
[1] = N-1 versus N-2 crystalline dihydrochloride salts; cited from earlier work

Structure (SMILES)	hygroscopicity (Hygroscopicity)	thermodynamic stability among polymorphs [1]
COC(=O)N[C@H](C(=O)N1CCC[C@H]1c1ncc(-c2ccc(-c3ccc(-c4cnc([C@@H]5CCCN5C(=O)[C@@H](NC(=O)OC)C(C)C)[nH]4)cc3)cc2)[nH]1)C(C)C [Form A, methyl((1 S)-1-(((2S)-2-(5-(4′-(2-((2S)-1-((2S)-2-((methoxycarbonyl)amino)-3-methylbutanoyl)-2-pyrrolidinyl)-1H-imidazol-5-yl)-4-biphenylyl)-1H-imidazol-2-yl)-1-pyrrolidinyl)carbonyl)-2-methylpropyl)carbamate]	substantially non-hygroscopic	
COC(=O)N[C@H](C(=O)N1CCC[C@H]1c1nc(-c2ccc(-c3ccc(-c4c[nH]c([C@@H]5CCCN5C(=O)[C@@H](NC(=O)OC)C(C)C)n4)cc3)cc2)c[nH]1)C(C)C [Form N-2, methyl((1S)-1-(((2S)-2-(5-(4′-(2-((2S)-1-((2S)-2-((methoxycarbonyl)amino)-3-methylbutanoyl)-2-pyrrolidinyl)-1H-imidazol-5-yl)-4-biphenylyl)-1H-imidazol-2-yl)-1-pyrrolidinyl)carbonyl)-2-methylpropyl) carbamate dihydrochloride]		thermodynamically most stable polymorph
